Assay results reported in US20250109140A1, “5-[5-(PIPERIDIN-4-YL)THIENO[3,2-C]PYRAZOL-2-YL]INDAZOLE DERIVATIVES AND RELATED COMPOUNDS AS MODULATORS FOR SPLICING NUCLEIC ACIDS AND FOR THE TREATMENT OF PROLIFERATIVE DISEASES” (REMIX THERAPUTICS INC., priority 2022, published 2025).
Like-named read-outs stand apart in the source and are kept apart here.

Legend:
HTT mRNA = experiment: Splicing RT-qPCR assay, HTT canonical (CJ) and alternative (AJ) junction mRNA; type: cell-based; conditions: Homo sapiens; for EC50: AC50 = 50% response in AJ mRNA increase
How it was run: (§1)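 Readout is RT-qPCR of CJ and AJ mRNA in lysates from A673 or K562 cells given an 11-point titration (top dose 10 uM final, DMSO at most 0.25%) for 24 hours. Data were normalized to GAPDH, GUSB or PPIA, then to DMSO.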

Target C = experiment: HiBiT protein abundance assay, Target C (K562 HiBiT knock-in cells); type: cell-based, human; conditions: 24 hours treatment
Protocol: • Promega Nano-Glo HiBiT Lytic Detection System (cat #N3030) • Corning 384-well TC-treated microplates (cat #3570) • Synthego Engineered Cells Knock-In Clones
(§2) Cells were maintained in IMDM with 10% FBS. Before the assay, cells were diluted with […] growth media (IMDM+[…] media) and were seeded in a 384-well plate at a density of 10000 cells/well (for each cell line listed in Table 6). Each compound was prepared as a 10-point 3-fold serial dilution in DMSO with the top dose at a final concentration of […] in the well. Unmodified K562 cells were added at the previously specified density with DMSO to serve as an assay baseline and positive control (PC) and DMSO only with the respective modified cell lines was added to the negative control (NC) columns. Final DMSO concentration was kept at or below 0.25%. Treated cell plates were placed in an incubator at 37° C. with […] for 24 hours. After 24 hours, 25 μL of Complete HiflitLytic reagent was added to each well at room temperature (e.g. one plate requiring 10 mL Lytic Buffer, 100 μL LgBiT Protein, 200 μL Lytic Substrate), shaken for 5 minutes at 600 RPM, then left to sit for 10 minutes for signal to stabilize before reading on a Spark Cyto plate reader (Tecan) with a 500 ms measurement time.
(§3) To determine compound effects on protein abundance of each target in Table 6, the percent response for each respective cell line was calculated at each compound concentration as follows:
(§4) For the normalized response at each concentration, a four-parameter logistical regression was fit to the data and the response was interpolated at the 50% value to determine a concentration for protein abundance at 50% (IC50) the untreated control.

SMN2 mRNA = experiment: Splicing RT-qPCR gene panel, SMN2 canonical junction (CJ) mRNA; type: cell-based; conditions: Homo sapiens; Table 8; larger gene panel, decrease in CJ mRNA levels
How it was run: as §1

Target C mRNA = experiment: Splicing RT-qPCR gene panel, Target C canonical junction (CJ) mRNA; type: cell-based; conditions: Homo sapiens; Table 8; larger gene panel, decrease in CJ mRNA levels
How it was run: as §1

HiBiT-tagged MYB protein = experiment: HiBiT protein abundance assay, MYB (K562 HiBiT knock-in cells); type: cell-based, human; conditions: 24 hours treatment
Protocol: (§5) Compounds described herein were used to screen for effects on quantitative protein abundance using a HiBit assay system (Promega). Quantitative protein abundance was determined by measuring the protein levels of HiBit-tagged protein targets expressed in cell culture via luminescence using the Nano-Glo HiBiT Lytic Detection System, which uses a split complementation assay format to reconstitute NanoBiT enzyme to generate a luminescent signal. A protein abundance assay was developed such that endogenous protein targets could be modified with the HiBiT peptide tag and their abundance could be assessed after compound treatment. Briefly, K562 cell lines containing a HiBiT-modification were treated with various compounds described herein (e.g., compounds of Formulas (I), or (II)). After treatment for 24 hours, the protein abundance of a specific target was determined by measuring luminescence.
as §2, §3, §4

[1] = system: K562 (human chronic myelogenous leukemia) cells; experiment: Cell viability, Cell Titer Glo 2.0 assay, K562 cells; type: cell-based; conditions: 72 hours
Protocol: Compounds described herein were screened for toxicity in K562 (human chronic myelogenous leukemia) and SH-SY5Y (human neuroblastoma) cells using a Cell Titer Glo 2.0 assay.
Cells were plated at 500 cells/well (K562 cells) in 45 μL of IMDM supplemented with 10% FBS in a 384-well opaque plate. Wells containing only medium were used as a blank control. Test compounds (e.g., compounds of Formula (I), (III), (IV), (V), or (VI)) were first serially diluted in DMSO then diluted 1:100 with IMDM+10% FBS. The final concentration of DMSO was 0.1% in each well. The cells were incubated for 72 hours at 37° C. and 5% CO2 before assaying with Cell Titer Glo 2.0 reagent.

MYB mRNA = experiment: Splicing RT-qPCR assay, MYB canonical (CJ) and alternative (AJ) junction mRNA; type: cell-based; conditions: Homo sapiens; for EC50: AC50 = 50% response in AJ mRNA increase
How it was run: as §1

HiBiT-tagged HTT protein = experiment: HiBiT protein abundance assay, HTT (K562 HiBiT knock-in cells); type: cell-based, human; conditions: 24 hours treatment
Protocol: as §5, §2, §3, §4

[2] = Table 7, RT-qPCR, A673 or K562 cells, 24 hours treatment
[3] = Table 7, IC50 = 50% response in CJ mRNA decrease, RT-qPCR, A673 or K562 cells, 24 hours treatment, read-out: HTT CJ
[4] = Table 8, larger gene panel, decrease in CJ mRNA levels, read-out: HTT CJ IC50
[5] = Table 7, IC50 = 50% response in CJ mRNA decrease, RT-qPCR, A673 or K562 cells, 24 hours treatment, read-out: MYB CJ
[6] = Table 8, larger gene panel, decrease in CJ mRNA levels, read-out: MYB CJ IC50

EC50 (HTT mRNA; [2]) [nM] | IC50 (HTT mRNA; [3]) [nM] | IC50 (HTT mRNA; [4]) [nM] | IC50 (Target C) [nM] | IC50 (SMN2 mRNA) [nM] | IC50 (Target C mRNA) [nM] | IC50 (HiBiT-tagged MYB protein) [nM] | IC50 [1] [nM] | EC50 (MYB mRNA; [2]) [nM] | IC50 (MYB mRNA; [5]) [nM] | IC50 (MYB mRNA; [6]) [nM] | IC50 (HiBiT-tagged HTT protein) [nM] | Structure (SMILES)
1000 to 10000 | 1000 to 10000 | 1000 to 10000 | 1000 to 10000 | 1000 to 10000 | > 10000 | 1000 to 10000 | > 10000 | 1000 to 10000 | > 10000 | > 10000 | 1000 to 10000 | Cc1cc(-n2cc3nc(C4CCNCC4)sc3n2)cc2cn(C)nc12 [Compound 1106]
< 100 | < 100 | < 100 | 1000 to 10000 | < 100 | < 100 | < 100 | 100 to 1000 | < 100 | < 100 | < 100 | 1000 to 10000 | Cc1c(O)c(-c2nc3cn(C4CCNCC4)nc3s2)cc2cn(C)nc12 [Compound 1108, 2,7-dimethyl-5-(2-(piperidin-4-yl)-2H-pyrazolo[4,3-d]thiazol-5-yl)-2H-indazol-6-ol]
100 to 1000 | < 100 | < 100 | < 100 | < 100 | 100 to 1000 | 100 to 1000 | 100 to 1000 | 100 to 1000 | 100 to 1000 | 100 to 1000 | < 100 | Cc1cc(-c2nc3cn(C4CCNCC4)nc3s2)cc2cn(C)nc12 [Compound 1101]
100 to 1000 | < 100 | 100 to 1000 | < 100 | < 100 | 100 to 1000 | 100 to 1000 | 100 to 1000 | 1000 to 10000 | 100 to 1000 | 1000 to 10000 | < 100 | Cc1cn2cc(-n3cc4cc(C5CCNCC5)sc4n3)cc(F)c2n1 [Compound 156]
100 to 1000 | 100 to 1000 | 100 to 1000 | 100 to 1000 | 100 to 1000 | 1000 to 10000 | 100 to 1000 | 1000 to 10000 | 1000 to 10000 | 1000 to 10000 | 1000 to 10000 | 100 to 1000 | Cc1cn2cc(-n3cc4sc(C5CCNCC5)cc4n3)cc(F)c2n1 [Compound 166, 4-(2-{8-fluoro-2-methylimidazo[1,2-a]pyridin-6-yl}thieno[3,2-c]pyrazol-5-yl)piperidine]
1000 to 10000 | 1000 to 10000 | 1000 to 10000 | 1000 to 10000 | 1000 to 10000 | 1000 to 10000 | 1000 to 10000 | 1000 to 10000 | 1000 to 10000 | 1000 to 10000 | 1000 to 10000 | 1000 to 10000 | Cn1cc2cc(-n3cc4sc(C5CCNCC5)cc4n3)c(O)cc2n1 [Compound 178]
< 100 | < 100 | < 100 | < 100 | < 100 | 100 to 1000 | 100 to 1000 | 100 to 1000 | 100 to 1000 | 100 to 1000 | 100 to 1000 | < 100 | Cc1cc(-c2cc3cn(C4CCNCC4)nc3s2)cc2cn(C)nc12 [Compound 225]

Further lines, the compound ahead of its results:

Structure (SMILES) | EC50 (HTT mRNA; [2]) [nM] | IC50 (HTT mRNA; [3]) [nM] | IC50 (HTT mRNA; [4]) [nM] | IC50 (Target C) [nM] | IC50 (SMN2 mRNA) [nM] | IC50 (Target C mRNA) [nM] | IC50 (HiBiT-tagged MYB protein) [nM] | IC50 [1] [nM] | EC50 (MYB mRNA; [2]) [nM] | IC50 (MYB mRNA; [5]) [nM] | IC50 (MYB mRNA; [6]) [nM] | IC50 (HiBiT-tagged HTT protein) [nM]
Cc1cn2cc(-c3nc4cn(C5CCNCC5)nc4s3)nc(C)c2n1 [Compound 1105, 4-(5-{2,8-dimethylimidazo[1,2-a]pyrazin-6-yl}pyrazolo[4,3-d][1,3]thiazol-2-yl)piperidine] | > 10000 | > 10000 | > 10000 | > 10000 | 1000 to 10000 | > 10000 | 1000 to 10000 | > 10000 | > 10000 | > 10000 | > 10000 | 1000 to 10000
Cc1cn2nc(-n3cc4sc(N5CC6(CN(C)C6)C5)cc4n3)cc(C)c2n1 [Compound 188, 2-(2-{2,8-dimethylimidazo[1,2-b]pyridazin-6-yl}thieno [3,2-c]pyrazol-5-yl)-6-methyl-2,6-diazaspiro [3.3]heptane] | 1000 to 10000 | 100 to 1000 | 1000 to 10000 | 1000 to 10000 | 100 to 1000 | 1000 to 10000 | 1000 to 10000 | 1000 to 10000 | 1000 to 10000 | 1000 to 10000 | 1000 to 10000 | 1000 to 10000
Cc1nc2cc(O)c(-c3nc4cn(C5CCNCC5)nc4s3)cc2o1 [Compound 1104] | 100 to 1000 | 100 to 1000 | 100 to 1000 | 100 to 1000 | < 100 | 1000 to 10000 | 1000 to 10000 | 1000 to 10000 | 1000 to 10000 | 1000 to 10000 | 1000 to 10000 | < 100
Cn1cc2cc(-c3cc4cn([C@H]5CCNC[C@@H]5F)nc4s3)cc(F)c2n1 [Compound 190] | 100 to 1000 | < 100 | 100 to 1000 | 1000 to 10000 | < 100 | 100 to 1000 | 1000 to 10000 | 1000 to 10000 | 100 to 1000 | 100 to 1000 | 100 to 1000 | 100 to 1000
Cc1cn2nc(-c3cc4cn(C5CCNCC5)nc4s3)cc2c(C)n1 [Compound 222] | 1000 to 10000 | 1000 to 10000 | 1000 to 10000 | 1000 to 10000 | < 100 | 1000 to 10000 | 1000 to 10000 | 1000 to 10000 | 1000 to 10000 | 1000 to 10000 | 1000 to 10000 | 100 to 1000
Cn1cc2cc(-c3cc4cn([C@H]5CCNC[C@H]5F)nc4s3)cc(F)c2n1 [Compound 182] | 100 to 1000 | < 100 | 100 to 1000 | 100 to 1000 | < 100 | 100 to 1000 | 100 to 1000 | 100 to 1000 | 1000 to 10000 | 100 to 1000 | 1000 to 10000 | < 100
CCN1CCC(n2cc3cc(-c4cc(F)c5nn(C)cc5c4)sc3n2)CC1 [Compound 149, 5-[2-(1-ethylpiperidin-4-yl)thieno[2,3-c]pyrazol-5-yl]-7-fluoro-2-methylindazole] | < 100 | < 100 | < 100 | 100 to 1000 | < 100 | 100 to 1000 | 100 to 1000 | 100 to 1000 | 100 to 1000 | 100 to 1000 | 100 to 1000 | < 100
Cc1cn2cc(-c3cc4cn(C5CCNCC5)nc4s3)cc(C)c2n1 [Compound 216] | < 100 | < 100 | < 100 | < 100 | < 100 | 100 to 1000 | 100 to 1000 | 100 to 1000 | 100 to 1000 | 100 to 1000 | 100 to 1000 | < 100
